Laboratory results taken from paper PMC10387993, “New pyrimidine-N-β-D-glucosides: synthesis, biological evaluation, and molecular docking investigations” (Turkish Journal of Chemistry, 2023).
In brackets after ≈: the same amount, converted by molar mass. Like-named read-outs stand apart in the source and are kept apart here.

Legend:
Format in all cases: cell-based
[1] = tested on: S. aureus MRSA ATCC 46300; experiment: Microdilution MIC assay; conditions: Staphylococcus aureus; S. aureus MRSA ATCC 46300, 24 h at 35 °C; read-out: MIC
Experimental: (§1) MIC values of the compounds against bacterial strains were determined on the basis of a microwell dilution method. […] […]. Growth of microorganisms was determined visually after incubation for 24 h at 35 °C. The lowest concentration at which there was no visible growth (turbidity) was taken as the MIC.

[2] = tested on: P. aeruginosa AGME ATCC 27853; experiment: Microdilution MIC assay; conditions: Pseudomonas aeruginosa, ATCC27853; P. aeruginosa AGME ATCC 27853, 24 h at 35 °C
Experimental: as §1

[3] = tested on: E. faecalis VRE ATCC 19433; experiment: Microdilution MIC assay; conditions: Enterococcus faecalis; E. faecalis VRE ATCC 19433, 24 h at 35 °C
Experimental: as §1

E. coli ESBL ATCC 35218 = experiment: Microdilution MIC assay; conditions: Escherichia coli, ATCC35218; E. coli ESBL ATCC 35218, 24 h at 35 °C
Experimental: as §1

E. coli ATCC 25922 = experiment: Microdilution MIC assay; conditions: Escherichia coli, ATCC25922; E. coli ATCC 25922, 24 h at 35 °C
Experimental: as §1

[4] = tested on: A. actinomycetemcomitans ATCC 33384; experiment: Microdilution MIC assay; conditions: Aggregatibacter actinomycetemcomitans, ATCC33384; A. actinomycetemcomitans ATCC 33384, 24 h at 35 °C
Experimental: as §1

S. aureus ATCC 25923 = experiment: Microdilution MIC assay; conditions: Staphylococcus aureus, ATCC25923, 24 h, S. aureus ATCC 25923, 24 h at 35 °C; read-out: MIC
Experimental: as §1

[5] = tested on: S. aureus MSSA ATCC 29213; experiment: Microdilution MIC assay; conditions: S. aureus MSSA ATCC 29213, 24 h at 35 °C
Experimental: as §1

E. faecalis ATCC 29212 = experiment: Microdilution MIC assay; conditions: Enterococcus faecalis, ATCC29212, 24 h, E. faecalis ATCC 29212, 24 h at 35 °C; read-out: MIC
Experimental: as §1

S. mutans ATCC 35668 = experiment: Microdilution MIC assay; conditions: S. mutans ATCC 35668, 24 h at 35 °C
Experimental: as §1

S. gordonii NCTC 7870 = experiment: Microdilution MIC assay; conditions: Streptococcus gordonii, NCTC7870; S. gordonii NCTC 7870, 24 h at 35 °C
Experimental: as §1

MCF7 = experiment: cells; conditions: Homo sapiens; for LC50 (concentration causing 50% net cell loss relative to time zero): MCF7, read-out: LC50; for GI50 / IC50 / IC (total growth inhibition): MCF7, MTT; for IC50: read-out: IC50; for IC (total growth inhibition): read-out: TGI
Outline: (§2)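 Cells were seeded at about 1 × 10^4 per well, brought to 200 μL with medium, and assessed by MTT: 4 h with MTT reagent, formazan dissolved in DMSO with Sorenson's buffer, absorbance read at 560 nm (690 nm reference). IC50 derived from percent inhibition relative to DMSO.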

normal FL cells = experiment: cells; conditions: FL normal cells, MTT; for IC50: read-out: IC50; for IC (total growth inhibition): read-out: TGI
Outline: as §2

in vitro = conditions: human, LC50
Outline: as §2

[6] = LDH cytotoxic activity assay, HeLa; conditions: human, HeLa cells
Outline: (§3)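 About 5 × 10^3 cells per well, in triplicate, exposed to 25, 50, 75 and 100 μg/mL of test compound for 24 h at 37 °C, 5% CO2. Cells grown in DMEM or RPMI 1640 with 10% FBS. LDH activity read as absorbance at 492–630 nm.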

[7] = LDH cytotoxic activity assay, HT29; conditions: human, HT29 cells; for cytotoxicity at 24 h, 25 μg/mL: HT29, 25 μg/mL; for cytotoxicity at 24 h, 50 μg/mL: HT29, 50 μg/mL; for cytotoxicity at 24 h, 75 μg/mL: HT29, 75 μg/mL; for cytotoxicity at 24 h, 100 μg/mL: HT29, 100 μg/mL
Outline: as §3

[8] = LDH cytotoxic activity assay, C6; conditions: rat, C6 glioma cells; for cytotoxicity at 24 h, 25 μg/mL: C6, 25 μg/mL; for cytotoxicity at 24 h, 50 μg/mL: C6, 50 μg/mL; for cytotoxicity at 24 h, 75 μg/mL: C6, 75 μg/mL; for cytotoxicity at 24 h, 100 μg/mL: C6, 100 μg/mL
Outline: as §3

[9] = Staphylococcus aureus, 24 h, read-out: MIC
[10] = Streptococcus mutans, ATCC35668, 24 h, read-out: MIC

| Structure (SMILES) | MIC [1] | MIC [2] | MIC [3] | MIC (E. coli ESBL ATCC 35218) | MIC (E. coli ATCC 25922) | MIC [4] | MIC (S. aureus ATCC 25923) | MIC [5, 9] | MIC (E. faecalis ATCC 29212) | MIC (S. mutans ATCC 35668; [10]) | MIC (S. gordonii NCTC 7870) | LC50 (concentration causing 50% net cell loss relative to time zero) (MCF7) | GI50 (MCF7) | IC50 (MCF7) | IC (total growth inhibition) (MCF7) | GI50 (normal FL cells) | IC50 (normal FL cells) | IC (total growth inhibition) (normal FL cells) | LC50 (concentration causing 50% net cell loss) (in vitro) | cytotoxicity at 24 h, 25 μg/mL [6] | further results |
| --- | --- | --- | --- | --- | --- | --- | --- | --- | --- | --- | --- | --- | --- | --- | --- | --- | --- | --- | --- | --- | --- |
| Cc1ccccc1-c1cc(-c2ccccn2)nc(N[C@@H]2O[C@H](CO)[C@@H](O)[C@H](O)[C@H]2O)n1 [Compound 1, N-[4-(2-methylphenyl)-6-pyridin-2-ylpyrimidin-2-yl]-β-D-glucopyranosylamine] | 1000 µg/mL (≈ 2360 µM) | > 1000 µg/mL | > 1000 µg/mL | > 1000 µg/mL | > 1000 µg/mL | 500 µg/mL (≈ 1180 µM) | 500 µg/mL (≈ 1180 µM) | 500 µg/mL (≈ 1180 µM) | 1000 µg/mL (≈ 2360 µM) | 62.5 to 125 µg/mL (≈ 147 to 294 µM) | 250 µg/mL (≈ 589 µM) | > 500 µg/mL | 1.81 µg/mL (≈ 4.26 µM) | > 500 µg/mL | > 500 µg/mL | 3.1 µg/mL (≈ 7.3 µM) | 77.4 µg/mL (≈ 182 µM) | 81.6 µg/mL | > 500 µg/mL | 30.2% | MIC (S. mutans ATCC 35668): 62.5 µg/mL (≈ 147 µM); cytotoxicity at 24 h, 50 μg/mL [6]: 47%; cytotoxicity at 24 h, 75 μg/mL [6]: 65.3%; cytotoxicity at 24 h, 100 μg/mL [6]: 88.7%; cytotoxicity at 24 h, 25 μg/mL [7]: 29.3%; cytotoxicity at 24 h, 50 μg/mL [7]: 48%; cytotoxicity at 24 h, 75 μg/mL [7]: 68.9%; cytotoxicity at 24 h, 100 μg/mL [7]: 83.7%; cytotoxicity at 24 h, 25 μg/mL [8]: 28.7%; cytotoxicity at 24 h, 50 μg/mL [8]: 28.7%; cytotoxicity at 24 h, 75 μg/mL [8]: 72.1%; cytotoxicity at 24 h, 100 μg/mL [8]: 97.8% |
| Cc1ccccc1-c1cc(-c2ccncc2)nc(N[C@@H]2O[C@H](CO)[C@@H](O)[C@H](O)[C@H]2O)n1 [Compound 3, N-[4-(2-methylphenyl)-6-pyridin-4-ylpyrimidin-2-yl]-β-D-glucopyranosylamine] | 1000 µg/mL (≈ 2360 µM) | > 1000 µg/mL | > 1000 µg/mL | > 1000 µg/mL | > 1000 µg/mL | 500 µg/mL (≈ 1180 µM) | 500 µg/mL (≈ 1180 µM) | 1000 µg/mL (≈ 2360 µM) | > 1000 µg/mL | 500 µg/mL (≈ 1180 µM) | 1000 µg/mL (≈ 2360 µM) | > 500 µg/mL | 2.23 µg/mL (≈ 5.25 µM) | > 500 µg/mL | > 500 µg/mL | 6.56 µg/mL (≈ 15.5 µM) | > 500 µg/mL | > 500 µg/mL | > 500 µg/mL | 16.3% | cytotoxicity at 24 h, 50 μg/mL [6]: 33.4%; cytotoxicity at 24 h, 75 μg/mL [6]: 40.6%; cytotoxicity at 24 h, 100 μg/mL [6]: 56.9%; cytotoxicity at 24 h, 25 μg/mL [7]: 33.1%; cytotoxicity at 24 h, 50 μg/mL [7]: 49.9%; cytotoxicity at 24 h, 75 μg/mL [7]: 71.1%; cytotoxicity at 24 h, 100 μg/mL [7]: 98.7%; cytotoxicity at 24 h, 25 μg/mL [8]: 25.3%; cytotoxicity at 24 h, 50 μg/mL [8]: 32.1%; cytotoxicity at 24 h, 75 μg/mL [8]: 74%; cytotoxicity at 24 h, 100 μg/mL [8]: 99.7% |
| Cc1cccc(-c2cc(-c3ccccn3)nc(N[C@@H]3O[C@H](CO)[C@@H](O)[C@H](O)[C@H]3O)n2)c1 [Compound 4, N-[4-(3-methylphenyl)-6-pyridin-2-ylpyrimidin-2-yl]-β-D-glucopyranosylamine] | 500 µg/mL (≈ 1180 µM) | > 1000 µg/mL | > 1000 µg/mL | > 1000 µg/mL | > 1000 µg/mL | 250 µg/mL (≈ 589 µM) | 250 µg/mL (≈ 589 µM) | 250 µg/mL (≈ 589 µM) | 250 µg/mL (≈ 589 µM) | 62.5 to 125 µg/mL (≈ 147 to 294 µM) | 250 µg/mL (≈ 589 µM) | > 500 µg/mL | 3.44 µg/mL (≈ 8.1 µM) | > 500 µg/mL | > 500 µg/mL | 6.77 µg/mL (≈ 15.9 µM) | 78.1 µg/mL (≈ 184 µM) | 79.8 µg/mL | > 500 µg/mL | 26.9% | MIC (S. mutans ATCC 35668): 125 µg/mL (≈ 294 µM); cytotoxicity at 24 h, 50 μg/mL [6]: 64.3%; cytotoxicity at 24 h, 75 μg/mL [6]: 77.1%; cytotoxicity at 24 h, 100 μg/mL [6]: 97.2%; cytotoxicity at 24 h, 25 μg/mL [7]: 28.2%; cytotoxicity at 24 h, 50 μg/mL [7]: 35.7%; cytotoxicity at 24 h, 75 μg/mL [7]: 62.6%; cytotoxicity at 24 h, 100 μg/mL [7]: 74.9%; cytotoxicity at 24 h, 25 μg/mL [8]: 22.1%; cytotoxicity at 24 h, 50 μg/mL [8]: 49.3%; cytotoxicity at 24 h, 75 μg/mL [8]: 68.9%; cytotoxicity at 24 h, 100 μg/mL [8]: 89.2% |
| Cc1cccc(-c2cc(-c3ccncc3)nc(N[C@@H]3O[C@H](CO)[C@@H](O)[C@H](O)[C@H]3O)n2)c1 [Compound 6, N-[4-(3-methylphenyl)-6-pyridin-4-ylpyrimidin-2-yl]-β-D-glucopyranosylamine] | 250 µg/mL (≈ 589 µM) | > 1000 µg/mL | 1000 µg/mL (≈ 2360 µM) | > 1000 µg/mL | > 1000 µg/mL | 500 µg/mL (≈ 1180 µM) | 500 µg/mL (≈ 1180 µM) | 62.5 to 125 µg/mL (≈ 147 to 294 µM) | 1000 µg/mL (≈ 2360 µM) | 500 µg/mL (≈ 1180 µM) | 250 µg/mL (≈ 589 µM) | > 500 µg/mL | 2.29 µg/mL (≈ 5.4 µM) | > 500 µg/mL | > 500 µg/mL | 8.04 µg/mL (≈ 18.9 µM) | > 500 µg/mL | > 500 µg/mL | > 500 µg/mL | 14.3% | MIC [5]: 125 µg/mL (≈ 294 µM); cytotoxicity at 24 h, 50 μg/mL [6]: 29.2%; cytotoxicity at 24 h, 75 μg/mL [6]: 44.5%; cytotoxicity at 24 h, 100 μg/mL [6]: 47.8%; cytotoxicity at 24 h, 25 μg/mL [7]: 24.8%; cytotoxicity at 24 h, 50 μg/mL [7]: 34.5%; cytotoxicity at 24 h, 75 μg/mL [7]: 68.9%; cytotoxicity at 24 h, 100 μg/mL [7]: 85.6%; cytotoxicity at 24 h, 25 μg/mL [8]: 27.9%; cytotoxicity at 24 h, 50 μg/mL [8]: 38.2%; cytotoxicity at 24 h, 75 μg/mL [8]: 63.1%; cytotoxicity at 24 h, 100 μg/mL [8]: 84.9% |
